Patent publication US9751854B2 (Millennium Pharmaceuticals, Inc., priority 2014, dated 2017)

Each compound was assayed against human VPS34 (Homo sapiens (Human), UniProt Q8NEB9) (assay: Human VPS34 enzyme assay (Adapta TR-FRET ADP detection)). Conditions: not given.
Format: biochemical
Parameters: Percent Inhibition: dose or concentration left out as unconfirmed

human VPS34, sequence (Q8NEB9 whole entry): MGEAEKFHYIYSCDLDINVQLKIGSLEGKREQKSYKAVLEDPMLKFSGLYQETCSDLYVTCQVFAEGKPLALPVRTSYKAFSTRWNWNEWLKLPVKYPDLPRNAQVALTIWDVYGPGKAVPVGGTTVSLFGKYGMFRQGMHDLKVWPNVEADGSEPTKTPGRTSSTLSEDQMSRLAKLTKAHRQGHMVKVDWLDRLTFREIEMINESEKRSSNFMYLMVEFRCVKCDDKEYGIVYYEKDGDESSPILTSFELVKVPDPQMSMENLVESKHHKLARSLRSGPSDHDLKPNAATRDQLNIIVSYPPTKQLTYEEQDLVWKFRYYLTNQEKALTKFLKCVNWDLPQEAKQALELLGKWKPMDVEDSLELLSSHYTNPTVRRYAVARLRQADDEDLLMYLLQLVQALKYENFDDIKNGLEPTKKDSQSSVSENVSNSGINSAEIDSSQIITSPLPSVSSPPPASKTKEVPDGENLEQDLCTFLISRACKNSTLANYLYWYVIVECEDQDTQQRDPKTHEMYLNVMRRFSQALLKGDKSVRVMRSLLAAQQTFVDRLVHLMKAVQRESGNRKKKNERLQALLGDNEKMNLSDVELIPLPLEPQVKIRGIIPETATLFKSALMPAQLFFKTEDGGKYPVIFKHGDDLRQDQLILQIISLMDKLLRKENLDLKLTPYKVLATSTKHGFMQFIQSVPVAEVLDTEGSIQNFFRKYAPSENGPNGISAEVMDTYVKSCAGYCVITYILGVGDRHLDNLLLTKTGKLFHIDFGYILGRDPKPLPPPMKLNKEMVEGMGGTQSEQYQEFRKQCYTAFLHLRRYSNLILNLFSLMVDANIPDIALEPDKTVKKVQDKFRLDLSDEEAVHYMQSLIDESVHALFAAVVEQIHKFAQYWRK

SMILES	Percent Inhibition [%]
CCc1c(-c2ccnc(Nc3ccnc(C)n3)c2)cnc(Cl)c1NS(=O)(=O)c1ccc(F)cc1F [Compound I-259, N-{6-chloro-4-ethyl-2′-[(2-methylpyrimidin-4-yl)amino]-3,4′-bipyridin-5-yl}-2,4-difluorobenzenesulfonamide]	79
Cc1cc(Nc2cc(-c3cnc(Cl)c(NS(=O)(=O)c4ccc(F)cc4F)c3C)ccn2)nc(C)n1 [Compound I-218, N-{6-chloro-2′-[(2,6-dimethylpyrimidin-4-yl)amino]-4-methyl-3,4′-bipyridin-5-yl}-2,4-difluorobenzenesulfonamide]	>99

Same assay, conditions: IC50 range class

IC50 [nM]	SMILES
< 10	CC(=O)Nc1cc(-c2cnc(C)c(NS(=O)(=O)c3ccc(F)cc3)c2)ccn1 [Compound I-185, N-(5-{[(4-fluorophenyl)sulfonyl]amino}-6-methyl-3,4′-bipyridin-2′-yl)acetamide]
10 to 50	CC(=O)Nc1cc(-c2cnc(C)c(NS(=O)(=O)c3ccc(C(C)C)cc3)c2)ccn1 [Compound I-134, N-(5-{[(4-isopropylphenyl)sulfonyl]amino}-6-methyl-3,4′-bipyridin-2′-yl)acetamide]
< 10	CCOC(=O)Nc1cc(-c2cnc(C)c(NS(=O)(=O)c3ccc(Cl)cc3F)c2)ccn1 [Compound I-456, ethyl (5-{[(4-chloro-2-fluorophenyl)sulfonyl]amino}-6-methyl-3,4′-bipyridin-2′-yl}carbamate]
> 100	Cc1nccc(Nc2cc(-c3cnc(C)c(OCc4ccccc4)c3)ccn2)n1 [Compound I-363, 5-(benzyloxy)-6-methyl-N-(2-methylpyrimidin-4-yl)-3,4′-bipyridin-2′-amine]
10 to 50	CC(=O)Nc1cc(-c2cnc(C)c(NS(=O)(=O)N3CCN(C)CC3)c2)ccn1 [Compound I-269, N-(6-methyl-5-{[(4-methylpiperazin-1-yl)sulfonyl]amino}-3,4′-bipyridin-2′-yl)acetamide]
10 to 50	CC(=O)Nc1cc(-c2cnc(Cl)c(NS(=O)(=O)c3ccc(C4CC4)cc3F)c2C)ccn1 [Compound I-335, N-(6-chloro-5-{[(4-cyclopropyl-2-fluorophenyl)sulfonyl]amino}-4-methyl-3,4′-bipyridin-2′-yl)acetamide]
50 to 100	CC(=O)Nc1cc(-c2cncc(N(C)S(C)(=O)=O)c2)ccn1 [Compound I-20, N-{5-[methyl(methylsulfonyl)amino]-3,4′-bipyridin-2′-yl}acetamide]
< 10	CC(=O)Nc1cc(-c2cnc(C)c(NS(=O)(=O)c3ccc(F)cc3Cl)c2)ccn1 [Compound I-206, N-(5-{[(2-chloro-4-fluorophenyl)sulfonyl]amino}-6-methyl-3,4′-bipyridin-2′-yl)acetamide]
10 to 50	CC(=O)Nc1cc(-c2cncc(S(=O)(=O)Nc3ccccc3)c2)ccn1 [Compound I-459, N-[5-(phenylsulfamoyl)-3,4′-bipyridin-2′-yl]acetamide]
10 to 50	CC(=O)Nc1cc(-c2cnc(N)c(C(=O)N3CCC(F)(F)C3)c2)ccn1 [Compound I-60, N-{6-amino-5-[(3,3-difluoropyrrolidin-1-yl)carbonyl]-3,4′-bipyridin-2′-yl}acetamide]
10 to 50	CNc1ncc(-c2ccnc(NC(C)=O)c2)cc1C(=O)N(C)C12CC(C1)C2 [Compound I-449, 2′-acetamido-N-(bicyclo[1.1.1]pent-1-yl)-N-methyl-6-(methylamino)-3,4′-bipyridine-5-carboxamide]
10 to 50	Cc1nccc(Nc2cc(-c3cnc(C)c(C(=O)N(C)c4ccc(F)cc4F)c3)ccn2)n1 [Compound I-346, N-(2,4-difluorophenyl)-N,6-dimethyl-2′-[(2-methylpyrimidin-4-yl)amino]-3,4′-bipyridine-5-carboxamide]
10 to 50	CC(=O)Nc1cc(-c2cnc(N)c(S(=O)(=O)Cc3ccc(Cl)cc3)c2)ccn1 [Compound I-99, N-[6-amino-5-[(4-chlorobenzyl)sulfonyl]-3,4′-bipyridin-2′-yl]acetamide]
50 to 100	CCOCCS(=O)(=O)c1cc(-c2ccnc(NC(C)=O)c2)cnc1N [Compound I-145, N-{6-amino-5-[(2-ethoxyethyl)sulfonyl]-3,4′-bipyridin-2′-yl}acetamide]
> 100	CC(=O)Nc1cc(-c2cncc(C=O)c2)ccn1 [Compound I-184, N-(5-formyl-3,4′-bipyridin-2′-yl)acetamide]
> 100	CC(=O)Nc1cc(-c2cnc3[nH]c(C)nc3c2)ccn1 [Compound I-66, N-[4-(2-methyl-3H-imidazo[4,5-b]pyridin-6-yl)pyridin-2-yl]acetamide]
10 to 50	Cc1c(-c2ccnc(Nc3ccnc(C4CC4)n3)c2)cnc(Cl)c1C(=O)O [Compound I-369, 6-chloro-2′-((2-cyclopropylpyrimidin-4-yl)amino)-4-methyl-[3,4′-bipyridine]-5-carboxylic acid]
< 10	CCc1c(-c2ccnc(Nc3ccnc(C)n3)c2)cnc(Cl)c1NS(=O)(=O)c1ccc(F)cc1F [Compound I-259, N-{6-chloro-4-ethyl-2′-[(2-methylpyrimidin-4-yl)amino]-3,4′-bipyridin-5-yl}-2,4-difluorobenzenesulfonamide]
< 10	Cc1nccc(Nc2cc(-c3cc(NS(=O)(=O)c4ccc(F)cc4F)c4ccnn4c3)ccn2)n1 [Compound I-486, 2,4-difluoro-N-(6-{2-[(2-methylpyrimidin-4-yl)amino]pyridin-4-yl}pyrazolo[1,5-a]pyridin-4-yl)benzenesulfonamide]
10 to 50	CC(=O)Nc1cc(-c2cnc(C)c(N3CCN(C)S3(=O)=O)c2)ccn1 [Compound I-386, N-[6-methyl-5-(5-methyl-1,1-dioxido-1,2,5-thiadiazolidin-2-yl)-3,4′-bipyridin-2′-yl]acetamide]

IC50 [nM]	SMILES
> 100	Cc1nccc(Nc2cc(-c3cnc(C)c(OCCN(C)C)c3)ccn2)n1 [Compound I-379, 5-[2-(dimethylamino)ethoxy]-6-methyl-N-(2-methylpyrimidin-4-yl)-3,4′-bipyridin-2′-amine]
< 10	CC(=O)Nc1cc(-c2cnc(C)c(NS(=O)(=O)c3ccc(C#N)cc3F)c2)ccn1 [Compound I-356, N-(5-{[(4-cyano-2-fluorophenyl)sulfonyl]amino}-6-methyl-3,4′-bipyridin-2′-yl)acetamide]
10 to 50	CC(=O)Nc1cc(-c2cnc(C)c(NS(=O)(=O)C3CC3)c2)ccn1 [Compound I-114, N-{5-[(cyclopropylsulfonyl)amino]-6-methyl-3,4′-bipyridin-2′-yl]acetamide]
10 to 50	CC(=O)Nc1cc(-c2cnc(N(C)C)c(S(=O)(=O)Nc3ccc(F)cc3F)c2)ccn1 [Compound I-491, N-{5-[(2,4-difluorophenyl)sulfamoyl]-6-(dimethylamino)-3,4′-bipyridin-2′-yl}acetamide]
> 100	CC(=O)Nc1cc(-c2cncc(C(=O)N(C)C)c2)ccn1 [Compound I-48, 2′-acetamido-N,N-dimethyl-3,4′-bipyridine-5-carboxamide]
10 to 50	COC(=O)Nc1cc(-c2cnc(C)c(N3CCCS3(=O)=O)c2)ccn1 [Compound I-146, methyl [5-(1,1-dioxidoisothiazolidin-2-yl)-6-methyl-3,4′-bipyridin-2′-yl]carbamate]
> 100	CC(=O)Nc1cc(-c2cnc(N)c(N3CCCC3=O)c2)ccn1 [Compound I-337, N-[6-amino-5-(2-oxopyrrolidin-1-yl)-3,4′-bipyridin-2′-yl]acetamide]
10 to 50	CC(=O)Nc1cc(-c2cnc(N)c(C(=O)N(C)C)c2)ccn1 [Compound I-149, 2′-acetamido-6-amino-N,N-dimethyl-3,4′-bipyridine-5-carboxamide]
10 to 50	CC(=O)Nc1cc(-c2cnc(N)c(S(=O)(=O)Cc3ccc(F)cc3F)c2)ccn1 [Compound I-138, N-[6-amino-5-[(2,4-difluorobenzyl)sulfonyl]-3,4′-bipyridin-2′-yl]acetamide]
10 to 50	CC(=O)Nc1cc(-c2cnc(C)c(N3CCCNS3(=O)=O)c2)ccn1 [Compound I-387, N-[5-(1,1-dioxido-1,2,6-thiadiazinan-2-yl)-6-methyl-3,4′-bipyridin-2′-yl]acetamide]
< 10	CC(=O)Nc1cc(-c2cnc(N)c(C(=O)N3CCc4ccccc43)c2)ccn1 [Compound I-71, N-[6-amino-5-(2,3-dihydro-1H-indol-1-ylcarbonyl)-3,4′-bipyridin-2′-yl]acetamide]
50 to 100	CC(=O)Nc1cc(-c2cnc(C)c(N3CCNS3(=O)=O)c2)ccn1 [Compound I-352, N-[5-(1,1-dioxido-1,2,5-thiadiazolidin-2-yl)-6-methyl-3,4′-bipyridin-2′-yl]acetamide]
10 to 50	CC(=O)Nc1cc(-c2cnc(C)c(NS(=O)(=O)N3CCC(F)(F)CC3)c2)ccn1 [Compound I-374, N-(5-{[(4,4-difluoropiperidin-1-yl)sulfonyl]amino}-6-methyl-3,4′-bipyridin-2′-yl)acetamide]
10 to 50	CC(=O)Nc1cc(-c2cc(NS(=O)(=O)N(C)C)c3ccnn3c2)ccn1 [Compound I-476, N-(4-{4-[(dimethylsulfamoyl)amino]pyrazolo[1.5-a]pyridin-6-yl}pyridin-2-yl)acetamide]
> 100	CC(=O)Nc1cc(-c2cnc(Cl)c(S(=O)(=O)NC(CO)c3ccccc3)c2)ccn1 (stereo in doubt) [Compound I-403, N-(6-chloro-5-{[(1R)-2-hydroxy-1-phenylethyl]sulfamoyl}-3,4′-bipyridin-2′-yl)acetamide]
< 10	CC(=O)Nc1cc(-c2cnc(N)c(S(=O)(=O)N(C(C)C)C(C)C)c2)ccn1 [Compound I-77, N-[6-amino-5-(diisopropylsulfamoyl)-3,4′-bipyridin-2′-yl]acetamide]
< 10	COc1ccc(S(=O)(=O)Nc2cc(-c3ccnc(NC(C)=O)c3)cnc2C)cc1 [Compound I-165, N-(5-{[(4-methoxyphenyl)sulfonyl]amino}-6-methyl-3,4′-bipyridin-2′-yl)acetamide]
< 10	CC(=O)Nc1cc(-c2cnc(C)c(NS(=O)(=O)c3cccnc3)c2)ccn1 [Compound I-45, N-{6-methyl-5-[(pyridin-3-ylsulfonyl)amino]-3,4′-bipyridin-2′-yl}acetamide]
> 100	Cc1nccc(Nc2cc(-c3cnc4c(c3)C(=O)NCC4)ccn2)n1 [Compound I-406, 3-[2-[(2-methylpyrimidin-4-yl)amino]-4-pyridyl]-7,8-dihydro-6H-1,6-naphthyridin-5-one]

SMILES	IC50 [nM]
Cc1cc(Nc2cc(-c3cnc(Cl)c(NS(=O)(=O)c4ccc(F)cc4F)c3C)ccn2)nc(C)n1 [Compound I-218, N-{6-chloro-2′-[(2,6-dimethylpyrimidin-4-yl)amino]-4-methyl-3,4′-bipyridin-5-yl}-2,4-difluorobenzenesulfonamide]	10 to 50
